Test results reported in patent US11214565B2, “Compound, compositions, and methods” (Denali Therapeutics Inc., priority 2015, dated 2022).

What follows are compounds tested against LRRK2 G2019S enzyme (Homo sapiens (Human), UniProt Q5S007, G2019S) (assay: LRRK2 G2019S TR-FRET biochemical kinase assay (LRRKtide substrate)). Settings: Table D-4; 5 nM LRRK2, 134 μM ATP, 60 minute reaction, 23° C.
How it was run: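 5 nM LRRK2 G2019S preincubated 20 min with LRRKtide and compound (3.162-fold dilution series) in Tris pH 7.5, MgCl2, EGTA, Brij-35, DTT, then reacted 60 min at 23 °C with 134 μM ATP. EDTA-stopped; pLRRKtide antibody detection, TR-FRET read at 340 nm excitation, 520/490–495 nm emission.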

Chain of LRRK2 G2019S enzyme (Q5S007 whole entry G2019S): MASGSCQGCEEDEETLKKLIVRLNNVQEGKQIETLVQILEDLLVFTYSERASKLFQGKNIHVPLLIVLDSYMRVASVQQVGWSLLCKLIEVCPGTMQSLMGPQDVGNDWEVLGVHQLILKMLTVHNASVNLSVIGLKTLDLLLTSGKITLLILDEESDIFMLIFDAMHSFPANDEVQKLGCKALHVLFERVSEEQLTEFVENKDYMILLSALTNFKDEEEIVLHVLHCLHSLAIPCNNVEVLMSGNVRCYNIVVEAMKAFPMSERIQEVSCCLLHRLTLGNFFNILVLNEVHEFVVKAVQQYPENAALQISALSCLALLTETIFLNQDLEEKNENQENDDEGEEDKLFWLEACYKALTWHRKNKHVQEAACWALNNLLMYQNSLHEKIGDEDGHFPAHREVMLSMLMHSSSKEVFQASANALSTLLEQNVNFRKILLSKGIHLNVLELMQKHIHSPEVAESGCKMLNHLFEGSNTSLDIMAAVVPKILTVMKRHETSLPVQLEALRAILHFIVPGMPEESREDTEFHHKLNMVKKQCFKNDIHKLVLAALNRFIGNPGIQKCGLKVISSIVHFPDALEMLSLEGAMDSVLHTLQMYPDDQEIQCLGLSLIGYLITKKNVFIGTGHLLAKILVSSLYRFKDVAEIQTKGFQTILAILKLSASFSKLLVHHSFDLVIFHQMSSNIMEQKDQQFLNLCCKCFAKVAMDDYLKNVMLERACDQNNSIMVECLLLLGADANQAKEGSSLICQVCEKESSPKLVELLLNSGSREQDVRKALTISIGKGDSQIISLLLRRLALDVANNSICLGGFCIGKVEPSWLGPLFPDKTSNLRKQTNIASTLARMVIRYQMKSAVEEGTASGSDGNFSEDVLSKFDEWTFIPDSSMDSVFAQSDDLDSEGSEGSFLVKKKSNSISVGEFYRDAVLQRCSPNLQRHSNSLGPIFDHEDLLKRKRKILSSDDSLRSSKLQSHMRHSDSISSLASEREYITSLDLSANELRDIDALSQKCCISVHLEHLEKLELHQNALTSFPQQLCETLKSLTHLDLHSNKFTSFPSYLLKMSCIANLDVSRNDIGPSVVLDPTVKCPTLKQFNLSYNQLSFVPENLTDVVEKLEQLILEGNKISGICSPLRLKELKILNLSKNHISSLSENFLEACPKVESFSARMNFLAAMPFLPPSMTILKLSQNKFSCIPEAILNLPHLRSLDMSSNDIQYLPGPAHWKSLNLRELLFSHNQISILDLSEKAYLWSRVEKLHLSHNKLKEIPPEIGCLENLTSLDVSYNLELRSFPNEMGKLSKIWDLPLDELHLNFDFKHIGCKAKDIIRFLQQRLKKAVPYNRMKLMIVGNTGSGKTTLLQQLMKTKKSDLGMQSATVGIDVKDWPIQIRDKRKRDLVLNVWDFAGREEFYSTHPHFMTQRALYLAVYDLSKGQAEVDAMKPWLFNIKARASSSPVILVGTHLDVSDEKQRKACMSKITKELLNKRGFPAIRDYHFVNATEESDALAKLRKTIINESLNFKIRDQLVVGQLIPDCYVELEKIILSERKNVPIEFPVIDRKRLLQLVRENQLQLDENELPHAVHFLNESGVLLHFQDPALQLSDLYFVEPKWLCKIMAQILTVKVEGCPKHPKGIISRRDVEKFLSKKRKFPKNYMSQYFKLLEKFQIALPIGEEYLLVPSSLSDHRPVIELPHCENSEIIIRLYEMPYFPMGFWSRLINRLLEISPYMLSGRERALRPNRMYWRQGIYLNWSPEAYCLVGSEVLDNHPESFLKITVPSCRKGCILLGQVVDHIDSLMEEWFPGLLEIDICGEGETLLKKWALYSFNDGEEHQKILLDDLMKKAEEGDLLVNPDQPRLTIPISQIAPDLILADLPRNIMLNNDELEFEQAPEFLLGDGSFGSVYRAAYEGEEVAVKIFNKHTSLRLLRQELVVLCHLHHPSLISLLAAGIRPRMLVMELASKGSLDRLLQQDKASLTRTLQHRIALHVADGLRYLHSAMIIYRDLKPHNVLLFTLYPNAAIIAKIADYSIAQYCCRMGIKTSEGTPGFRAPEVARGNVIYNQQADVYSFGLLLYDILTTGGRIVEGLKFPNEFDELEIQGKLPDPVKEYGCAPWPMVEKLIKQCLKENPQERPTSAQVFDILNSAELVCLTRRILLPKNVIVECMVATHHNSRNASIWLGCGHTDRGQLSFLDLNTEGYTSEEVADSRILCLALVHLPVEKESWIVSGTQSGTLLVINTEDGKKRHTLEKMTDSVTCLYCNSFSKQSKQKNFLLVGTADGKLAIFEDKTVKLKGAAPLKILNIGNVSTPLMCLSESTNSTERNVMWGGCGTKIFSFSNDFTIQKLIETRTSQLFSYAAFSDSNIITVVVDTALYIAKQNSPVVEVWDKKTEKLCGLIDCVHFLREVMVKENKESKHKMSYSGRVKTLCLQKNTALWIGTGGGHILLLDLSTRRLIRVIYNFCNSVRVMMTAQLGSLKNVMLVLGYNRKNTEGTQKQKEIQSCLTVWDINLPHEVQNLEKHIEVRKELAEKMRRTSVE

IC50 [nM]	SMILES
< 30	CNc1nc(Nc2cn([C@H]3C[C@H](CC#N)C3)nc2C)ncc1C(F)(F)F [Compound D-30, trans-2-[3-[4-[[5-(difluoromethyl-fluoranyl)-4-(methylamino)pyrimidin-2-yl]amino]-3-methyl-pyrazol-1-yl]cyclobutyl]acetonitrile]
< 30	CNc1nc(Nc2cnn([C@H]3C[C@H](COC(F)F)C3)c2C)ncc1C(F)(F)F [Compound D-31, trans-N2-[1-[3-(difluoromethoxymethyl)cyclobutyl]-5-methyl-pyrazol-4-yl]-5-(difluoromethyl-fluoranyl)-N4-methyl-pyrimidine-2,4-diamine]
< 30	CNc1nc(Nc2cn([C@H]3C[C@H](COC(F)F)C3)nc2C)ncc1C(F)(F)F [Compound D-32, trans-N2-[1-[3-(difluoromethoxymethyl)cyclobutyl]-3-methyl-pyrazol-4-yl]-5-(difluoromethyl-fluoranyl)-N4-methyl-pyrimidine-2,4-diamine]
< 30	CNc1nc(Nc2cnn(CC3(CC#N)CC3)c2Cl)ncc1C(F)(F)F [Compound D-33, 2-(1-((5-chloro-4-((4-(methylamino)-5-(trifluoromethyl)pyrimidin-2-yl)amino)-1H-pyrazol-1-yl)methyl)cyclopropyl)acetonitrile]
< 30	CNc1nc(Nc2cn(C3CCCn4ccnc43)nc2C)ncc1C(F)(F)F [Compound D-34, N^4-methyl-N^2-(3-methyl-1-(5,6,7,8-tetrahydroimidazo[1,2-a]pyridin-8-yl)-1H-pyrazol-4-yl)-5-(trifluoromethyl)pyrimidine-2,4-diamine]
< 30	CNc1nc(Nc2cn(C3CCc4c(C)noc43)nc2C)ncc1C(F)(F)F [Compound D-35, N^4-methyl-N^2-(3-methyl-1-(3-methyl-5,6-dihydro-4H-cyclopenta[d]isoxazol-6-yl)-1H-pyrazol-4-yl)-5-(trifluoromethyl)pyrimidine-2,4-diamine]
> 60	CNc1nc(Nc2cn(C3CCn4nccc43)nc2C)ncc1C(F)(F)F [Compound D-36, N^2-(1-(5,6-dihydro-4H-pyrrolo[1,2-b]pyrazol-4-yl)-3-methyl-1H-pyrazol-4-yl)-N^4-methyl-5-(trifluoromethyl)pyrimidine-2,4-diamine]
30 to 60	CNc1nc(Nc2cn(C3CCc4c3cnn4C)nc2C)ncc1C(F)(F)F [Compound D-37, N^4-methyl-N^2-(3-methyl-1-(1-methyl-1,4,5,6-tetrahydrocyclopenta[c]pyrazol-4-yl)-1H-pyrazol-4-yl)-5-(trifluoromethyl)pyrimidine-2,4-diamine]
< 30	CCSc1nc(Nc2cn(C(C)(C)C#N)nc2C)ncc1Cl [Compound D-44, 2-[4-[(5-chloro-4-ethylsulfanyl-pyrimidin-2-yl)amino]-3-methyl-pyrazol-1-yl]-2-methyl-propanenitrile]
< 30	CCSc1nc(Nc2cn(C(C)(C)C#N)nc2C)ncc1C(F)(F)F [Compound D-45, 2-[4-[[4-ethylsulfanyl-5-(trifluoromethyl)pyrimidin-2-yl]amino]-3-methyl-pyrazol-1-yl]-2-methyl-propanenitrile]
30 to 60	CSc1nc(Nc2cn(C(C)(C)C#N)nc2C)ncc1C(F)(F)F [Compound D-46, 2-methyl-2-[3-methyl-4-[[4-methylsulfanyl-5-(trifluoromethyl)pyrimidin-2-yl]amino]pyrazol-1-yl]propanenitrile]
> 60	CCSc1nc(Nc2cn(C(C)(C)C#N)nc2C)ncc1C#N [Compound D-47, 2-[[1-(1-cyano-1-methyl-ethyl)-3-methyl-pyrazol-4-yl]amino]-4-ethylsulfanyl-pyrimidine-5-carbonitrile]
< 30	CNc1nc(Nc2cnn(C(C)COC(F)F)c2C)ncc1C(F)(F)F [Compound D-48, N2-[1-[2-(difluoromethoxy)-1-methyl-ethyl]-5-methyl-pyrazol-4-yl]-5-(difluoromethyl-fluoranyl)-N4-methyl-pyrimidine-2,4-diamine]
< 30	CNc1nc(Nc2cnn([C@H]3C[C@@H](n4cccn4)C3)c2C)ncc1C(F)(F)F [Compound D-49, cis-N4-methyl-N2-[5-methyl-1-(3-pyrazol-1-ylcyclobutyl)pyrazol-4-yl]-5-(trifluoromethyl)pyrimidine-2,4-diamine]
< 30	CNc1nc(Nc2cnn([C@H]3C[C@@H](S(C)(=O)=O)C3)c2C)ncc1C(F)(F)F [Compound D-50, cis-N4-methyl-N2-[5-methyl-1-(3-methylsulfonylcyclobutyl)pyrazol-4-yl]-5-(trifluoromethyl)pyrimidine-2,4-diamine]
< 30	CNc1nc(Nc2cnn(C3CCc4c3cnn4C)c2C)ncc1C(F)(F)F [Compound D-56]
< 30	CCNc1nc(Nc2cn(C3CCc4ncsc43)nc2C)ncc1C(F)(F)F [Compound D-57]
< 30	CCNc1nc(Nc2cnn([C@H]3C[C@H](n4nccn4)C3)c2C)ncc1C(F)(F)F [Compound D-58]
< 30	CCNc1nc(Nc2cnn([C@H]3C[C@@H](n4cncn4)C3)c2C)ncc1C(F)(F)F [Compound D-59]
< 30	CCNc1nc(Nc2cnn(C3Cc4nccn4C3)c2C)ncc1C(F)(F)F [Compound D-60]

IC50 [nM]	SMILES
< 30	CCNc1nc(Nc2cnn([C@H]3C[C@H](n4ncnc4C(F)(F)F)C3)c2C)ncc1C(F)(F)F [Compound D-61]
> 60	CCNc1nc(Nc2cn(C3CCn4ccnc43)nc2Cl)ncc1C(F)(F)F [Compound D-62]
< 30	Cc1c(Nc2ncc(C(F)(F)F)c(NCC(F)F)n2)cnn1[C@H]1C[C@@H](n2cccn2)C1 [Compound D-63]
< 30	CNc1nc(Nc2cnn([C@H]3C[C@H](n4cc(F)cn4)C3)c2C)ncc1C(F)(F)F [Compound D-64]
< 30	CCNc1nc(Nc2cnn(C3CCn4nccc43)c2C)ncc1C(F)(F)F [Compound D-65]
< 30	CCNc1nc(Nc2cn([C@H]3C[C@H](c4cocn4)C3)nc2C)ncc1C(F)(F)F [Compound D-66]
> 60	CNc1nc(Nc2cn(C3CCn4cncc43)nc2C)ncc1C(F)(F)F [Compound D-67]
> 60	CCOc1nc(Nc2cn(C3CCn4ccnc43)nc2C)ncc1C(F)(F)F [Compound D-68]
< 30	CNc1nc(Nc2cn(C3CCC(n4ccnn4)C3)nc2C)ncc1C(F)(F)F [Compound D-69]
< 30	CNc1nc(Nc2cnn(C(C)COC(F)F)c2C)ncc1C(F)(F)F [Compound D-70]
< 30	CNc1nc(Nc2cnn([C@H]3C[C@H](n4cccn4)C3)c2C)ncc1C(F)(F)F [Compound D-71]
> 60	CNc1nc(Nc2cn(C3(c4ncnn4C)CCC3)nc2C)ncc1C(F)(F)F [Compound D-72]
< 30	CCNc1nc(Nc2cnn([C@H]3C[C@H](n4ccnn4)C3)c2C)ncc1C(F)(F)F [Compound D-73]
< 30	CCNc1nc(Nc2cn(C3Cc4nccn4C3)nc2C)ncc1C(F)(F)F [Compound D-74]
< 30	Cc1c(Nc2ncc(C(F)(F)F)c(NCC(F)F)n2)cnn1[C@H]1C[C@H](n2nccn2)C1 [Compound D-75]
< 30	CCNC(=O)C(F)(F)n1cc(Nc2ncc(C(F)(F)F)c(NCC)n2)c(C)n1 [Compound D-76]
< 30	CNc1nc(Nc2cnn([C@H]3C[C@@H](n4nccn4)C3)c2C)ncc1C(F)(F)F [Compound D-77]
> 60	CCNc1nc(Nc2cnn(C3CCCn4ccnc43)c2C)ncc1C(F)(F)F [Compound D-78]
< 30	CCNc1nc(Nc2cn(C3CCc4c(C)noc43)nc2C)ncc1C(F)(F)F [Compound D-79]
< 30	CCNc1nc(Nc2cn(C(C)COC(F)F)nc2C)ncc1C(F)(F)F [Compound D-80]

IC50 [nM]	SMILES
< 30	CCNc1nc(Nc2cnn([C@H]3C[C@@H](N4CCOCC4)C3)c2C)ncc1C(F)(F)F [Compound D-81]
< 30	CCNc1nc(Nc2cnn(C(C)COC(F)F)c2C)ncc1C(F)(F)F [Compound D-82]
< 30	CNc1nc(Nc2cn([C@H]3C[C@@H](c4nncs4)C3)nc2C)ncc1C(F)(F)F [Compound D-83]
< 30	CCNc1nc(Nc2cnn([C@H]3C[C@H](c4cocn4)C3)c2C)ncc1C(F)(F)F [Compound D-84]
< 30	CCNc1nc(Nc2cnn([C@H]3C[C@H](n4nccn4)C3)c2C)ncc1Br [Compound D-85]
< 30	Cc1c(Nc2ncc(C(F)(F)F)c(NCC(F)F)n2)cnn1[C@H]1C[C@H](n2cccn2)C1 [Compound D-87]
< 30	CCNc1nc(Nc2cnn([C@H]3C[C@H](n4cc(F)cn4)C3)c2C)ncc1C(F)(F)F [Compound D-88]
< 30	CCNc1nc(Nc2cnn([C@H]3C[C@H](c4nncs4)C3)c2C)ncc1C(F)(F)F [Compound D-89]
< 30	CNc1nc(Nc2cnn(C3CCC(n4nccn4)C3)c2C)ncc1C(F)(F)F [Compound D-90]
< 30	CCNc1nc(Nc2cnn(C3CCc4c(C)noc43)c2C)ncc1C(F)(F)F [Compound D-91]
30 to 60	CCNc1nc(Nc2cn(C3CCCn4ccnc43)nc2C)ncc1C(F)(F)F [Compound D-92]
< 30	CCNc1nc(Nc2cnn([C@H]3C[C@@H](n4cccn4)C3)c2C)ncc1C(F)(F)F [Compound D-93]
< 30	CNc1nc(Nc2cn([C@H]3C[C@H](n4cccn4)C3)nc2C)ncc1C(F)(F)F [Compound D-94]
> 60	CNc1nc(Nc2cn(C3CCCc4c3cnn4C)nc2C)ncc1C(F)(F)F [Compound D-95]
< 30	CCNc1nc(Nc2cnn(C3CCc4ncsc43)c2C)ncc1C(F)(F)F [Compound D-97]
< 30	CCNc1nc(Nc2cnn([C@H]3C[C@H](n4cccn4)C3)c2C)ncc1C(F)(F)F [Compound D-98]
< 30	CNc1nc(Nc2cn(C3CCn4c(Cl)cnc43)nc2C)ncc1C(F)(F)F [Compound D-99]
< 30	CCNc1nc(Nc2cn(C(F)(F)C(=O)NC)nc2C)ncc1C(F)(F)F [Compound D-100]
